Inhibition and IC50 data for 28 molecules are collected here from ChEMBL document CHEMBL3596147, “Synthesis and antitumor activity of 5-(5-halogenated-2-oxo-1H-pyrrolo[2,3-b]pyridin-(3Z)-ylidenemethyl)-2,4-dimethyl-1H-pyrrole-3-carboxamides” (Bioorg Med Chem Lett, 2015).

For orientation: inhibition means the percentage by which the read-out fell short of the control. One may read the IC50 as the concentration that inhibits the measured activity by half.

Assay [1] concerns MCF7. Nature of the assay: Cytotoxicity against human MCF7 cells assessed as inhibition of cell viability at 30 uM after 48 hrs by SRB assay. In kind it is functional. Particulars: MCF7, 48 h.
Assay [2] concerns MCF7. Nature of the assay: Cytotoxicity against human MCF7 cells assessed as inhibition of cell viability after 48 hrs by SRB assay. In kind it is functional, cell-based. Conditions: MCF7, 48 h.
The subject of the next assay is HepG2. Nature of the assay: Cytotoxicity against human HepG2 cells assessed as inhibition of cell viability after 48 hrs by SRB assay. In kind it is functional, cell-based. Particulars: HepG2, 48 h.
Another assay has as its system HT-29. Nature of the assay: Cytotoxicity against human HT-29 cells assessed as inhibition of cell viability after 48 hrs by SRB assay. In kind it is functional, cell-based. Conditions: HT-29, 48 h. On the technique in general: Sulforhodamine B stains cellular protein and so reports cell mass.
Assay [3] is described as follows: Cytotoxicity against human PANC1 cells assessed as inhibition of cell viability after 48 hrs by SRB assay. In kind it is functional, cell-based. Particulars: PANC-1, 48 h.
For the next assay, the system named is A549. Nature of the assay: Cytotoxicity against human A549 cells assessed as inhibition of cell viability after 48 hrs by SRB assay. In kind it is functional, cell-based. Particulars: A549, 48 h.
For the next assay, the system named is HeLa. As to the kind of experiment: Cytotoxicity against human HeLa cells assessed as inhibition of cell viability after 48 hrs by SRB assay. In kind it is functional, cell-based.
The subject of the next assay is SK-OV-3. Nature of the assay: Cytotoxicity against human SKOV3 cells assessed as inhibition of cell viability after 48 hrs by SRB assay. In kind it is functional, cell-based. Particulars: SK-OV-3, 48 h.

For `CCN(CC)CCNC(=O)c1c(C)[nH]c(/C=C2\C(=O)Nc3ncc(F)cc32)c1C`, in the assay with MCF7 [1], the inhibition at 30 µM came out at 70.7%. Also, the IC50 with MCF7 [2] is more than 30 µM; in the assay on HepG2, 15 µM; with HT-29, 6.27 µM; in assay [3], more than 30 µM.

`CCOC(=O)c1c(C)[nH]c(/C=C2\C(=O)Nc3ncc(F)cc32)c1C`: in the assay on MCF7 [1], the inhibition at 30 µM turned out to be 60.4%.

On to `Cc1[nH]c(/C=C2\C(=O)Nc3ncc(F)cc32)c(C)c1C(=O)O`, for which the inhibition at 30 µM in the assay on MCF7 [1] was 20.5%.

Regarding `Cc1[nH]c(/C=C2\C(=O)Nc3ncc(F)cc32)c(C)c1C(=O)NCCN(C)C`, in the assay on MCF7 [1], the inhibition at 30 µM came out at 61.1%.

In the case of `Cc1[nH]c(/C=C2\C(=O)Nc3ncc(F)cc32)c(C)c1C(=O)NCCN1CCOCC1`, the inhibition at 30 µM in the assay on MCF7 [1] stood at 15.6%.

With `Cc1[nH]c(/C=C2\C(=O)Nc3ncc(F)cc32)c(C)c1C(=O)NCC1CCN(C)CC1`, the inhibition at 30 µM in the assay with MCF7 [1] was 78%. Besides, the IC50 with MCF7 [2] is more than 30 µM; with HepG2, 21.2 µM; with HT-29 it was 5.72 µM; in assay [3] it was more than 30 µM.

As for `Cc1[nH]c(/C=C2\C(=O)Nc3ncc(F)cc32)c(C)c1C(=O)NCCN1CCCC1`, the inhibition at 30 µM in the assay on MCF7 [1] turned out to be 37.5%.

As for `Cc1[nH]c(/C=C2\C(=O)Nc3ncc(F)cc32)c(C)c1C(=O)NC1CC1`, the inhibition at 30 µM in the assay on MCF7 [1] worked out at 6.3%.

Consider `Cc1[nH]c(/C=C2\C(=O)Nc3ncc(F)cc32)c(C)c1C(=O)NCCOc1ccccc1`, for which, in the assay with MCF7 [1], the inhibition at 30 µM worked out at 2.8%.

As to `Cc1[nH]c(/C=C2\C(=O)Nc3ncc(F)cc32)c(C)c1C(=O)NCCOCc1ccccc1`, in the assay with MCF7 [1], the inhibition at 30 µM turned out to be 4.1%.

With `Cc1[nH]c(/C=C2\C(=O)Nc3ncc(F)cc32)c(C)c1C(=O)NCC(C)O` (configuration not stated), the inhibition at 30 µM with MCF7 [1] worked out at 0%.

As to `CCOC(=O)c1c(C)[nH]c(/C=C2\C(=O)Nc3ncc(Cl)cc32)c1C`, in the assay on MCF7 [1], the inhibition at 30 µM was 54.8%.

With `Cc1[nH]c(/C=C2\C(=O)Nc3ncc(Cl)cc32)c(C)c1C(=O)O`, the inhibition at 30 µM in the assay with MCF7 [1] worked out at 15.8%.

For `Cc1[nH]c(/C=C2\C(=O)Nc3ncc(Cl)cc32)c(C)c1C(=O)NCCN(C)C`, the inhibition at 30 µM in the assay with MCF7 [1] stood at 45.7%.

In the case of `CCN(CC)CCNC(=O)c1c(C)[nH]c(/C=C2\C(=O)Nc3ncc(Cl)cc32)c1C`, the inhibition at 30 µM in the assay with MCF7 [1] worked out at 88.9%. The IC50 in the assay with MCF7 [2] was determined as 26.3 µM; in the assay with HepG2 it was 12.4 µM; in the assay with HT-29 it was 6.93 µM; in the assay on A549, 10.3 µM; in assay [3], 14 µM; in the assay with HeLa, 29.4 µM. The IC50 with SK-OV-3 was 8.28 µM.

In the case of `Cc1[nH]c(/C=C2\C(=O)Nc3ncc(Cl)cc32)c(C)c1C(=O)NCCN1CCOCC1`, the inhibition at 30 µM in the assay with MCF7 [1] came out at 6%.

With `Cc1[nH]c(/C=C2\C(=O)Nc3ncc(Cl)cc32)c(C)c1C(=O)NCC1CCN(C)CC1`, in the assay with MCF7 [1], the inhibition at 30 µM is 88.4%. The IC50 in the assay with MCF7 [2] is more than 30 µM; in the assay with HepG2, 12.7 µM; in the assay on HT-29, 5.57 µM; in the assay with A549, 16.9 µM; in assay [3] it was more than 30 µM; with HeLa, more than 30 µM. The half-inhibitory concentration (IC50) with SK-OV-3 came out at 16.4 µM.

Take `Cc1[nH]c(/C=C2\C(=O)Nc3ncc(Cl)cc32)c(C)c1C(=O)NCCN1CCCC1`: the inhibition at 30 µM in the assay with MCF7 [1] was found to be 91.3%. Also, the IC50 with MCF7 [2] was 15.6 µM; in the assay with HepG2, 7.87 µM; in the assay on HT-29, 12.5 µM; in the assay with A549 it was 11.4 µM; in assay [3], 10.3 µM; in the assay with HeLa it was 24.5 µM. The IC50 in the assay with SK-OV-3 came to 16.1 µM.

Turning to `Cc1[nH]c(/C=C2\C(=O)Nc3ncc(Cl)cc32)c(C)c1C(=O)NC1CC1`, in the assay with MCF7 [1], the inhibition at 30 µM is 6.2%.

For `CCOC(=O)c1c(C)[nH]c(/C=C2\C(=O)Nc3ncc(Br)cc32)c1C`, the inhibition at 30 µM in the assay on MCF7 [1] is 6.3%.

On to `Cc1[nH]c(/C=C2\C(=O)Nc3ncc(Br)cc32)c(C)c1C(=O)O`, for which the inhibition at 30 µM in the assay with MCF7 [1] turned out to be 19.6%.

As for `Cc1[nH]c(/C=C2\C(=O)Nc3ncc(Br)cc32)c(C)c1C(=O)NCCN(C)C`, the inhibition at 30 µM in the assay on MCF7 [1] amounted to 79.4%. Besides, the IC50 is 14.1 µM in the assay with MCF7 [2]; 6.57 µM in the assay with HepG2; 5.04 µM with HT-29; 4.57 µM in the assay on A549; 11.6 µM in assay [3]; 17.9 µM in the assay on HeLa. In addition, the IC50 in the assay with SK-OV-3 turned out to be 4.98 µM.

On to `CCN(CC)CCNC(=O)c1c(C)[nH]c(/C=C2\C(=O)Nc3ncc(Br)cc32)c1C`, for which, in the assay with MCF7 [1], the inhibition at 30 µM amounted to 89.7%. The IC50 is 27.8 µM in the assay on MCF7 [2]; 12 µM in the assay on HepG2; 3.99 µM in the assay on HT-29; 6.46 µM in the assay with A549; 15.6 µM in assay [3]; 26.7 µM in the assay on HeLa. Moreover, the IC50 with SK-OV-3 worked out at 11.8 µM.

With `Cc1[nH]c(/C=C2\C(=O)Nc3ncc(Br)cc32)c(C)c1C(=O)NCCN1CCOCC1`, the inhibition at 30 µM in the assay with MCF7 [1] turned out to be 6%.

Regarding `Cc1[nH]c(/C=C2\C(=O)Nc3ncc(Br)cc32)c(C)c1C(=O)NCC1CCN(C)CC1`, the inhibition at 30 µM in the assay with MCF7 [1] amounted to 82.8%. Further, the concentration for half-maximal inhibition (IC50) in the assay with MCF7 [2] is more than 30 µM; with HepG2 it was 21.8 µM; in the assay on HT-29 it was 5.57 µM; with A549 it was 15.2 µM; in assay [3] it was 26.9 µM; in the assay on HeLa, more than 30 µM. In addition, the IC50 with SK-OV-3 was found to be 19.2 µM.

Take `Cc1[nH]c(/C=C2\C(=O)Nc3ncc(Br)cc32)c(C)c1C(=O)NCCN1CCCC1`: the inhibition at 30 µM in the assay with MCF7 [1] was 86.9%. Further, the half-maximal inhibitory concentration (IC50) in the assay with MCF7 [2] amounted to 15.1 µM; in the assay on HepG2, 9.36 µM; with HT-29 it was 4.49 µM; with A549, 4.82 µM; in assay [3], 6.2 µM; in the assay on HeLa it was 15.4 µM. For the same molecule, in the assay on SK-OV-3, the IC50 is 5.15 µM.

Consider `Cc1[nH]c(/C=C2\C(=O)Nc3ncc(Br)cc32)c(C)c1C(=O)NC1CC1`, for which, in the assay with MCF7 [1], the inhibition at 30 µM is 5.5%.

Consider `CCN(CC)CCNC(=O)c1c(C)[nH]c(/C=C2\C(=O)Nc3ccc(F)cc32)c1C` [SUNITINIB], for which the inhibition at 30 µM with MCF7 [1] worked out at 94%. In addition, the IC50 with MCF7 [2] is 25.4 µM; in the assay on HepG2, 16.1 µM; in the assay on HT-29, 4.7 µM; in the assay on A549, 7.93 µM; in assay [3], 14.9 µM; with HeLa it was more than 30 µM. In addition, the IC50 with SK-OV-3 was determined as 9.21 µM.
